Laboratory results: patent publication US3952108A, “Scopolamine derivatives for treating ulcers and spasms” (Istituto de Angeli S.p.A., priority 1972, dated 1976)

Legend:
[1] = test system: rabbit choledochoduodenal junction; assay: Spasmolytic activity "in vivo" on rabbit choledochoduodenal junction stimulated by neostigmine; details: 10 mcg/Kg i.v.; neostigmine 60 mcg/Kg i.v.; activity of scopolamine bromobutylate equal to 1
From the text: Spasmolytic activity "in vivo" on rabbit choledochoduodenal junction stimulated by neostigmine (60 mcg/Kg i.v.), after i.v. administration of the compound under examination, according to Luoma P., Acta Pharmacol. e Toxicol., 29, suppl. 1, 5-55 (1971).
(§1) The above experiments have been carried out in comparison with scopolamine bromobutylate as a reference. The results are shown in the following table and are expressed on the basis of the activity of scopolamine bromobutylate being equal to 1.

[2] = test system: gastric secretion in rats; assay: Action on gastric secretion in rats after intraduodenal administration; format: in vivo, rat; details: 40 mg/Kg i.d., activity of scopolamine bromobutylate equal to 1
From the text: Action on gastric secretion in rats after intraduodenal administration according to Birnbaum G., Medicina Psicosomatica, 13, 1-4 (1968).
as §1

[3] = Overall evaluation of the spasmolytic and anti-ulcer tests; details: versus scopolamine bromobutylate
From the text: The properties of the new compounds may be illustrated by the results of the following experiments.
as §1

Shay ulcer in rats = assay: Action on Shay ulcer in rats by intraduodenal route; format: in vivo, rat; details: 100 mg/Kg i.d., activity of scopolamine bromobutylate equal to 1
From the text: Action on Shay ulcer in rats by intraduodenal route according to Shay H., Komarov S. A., Fels S. S., Meranze D., Gruenstein M. and Siplet H., Gastroenterology, 5, 43-61 (1945).
as §1

Row | SMILES | % increase of flux, relative to scopolamine bromobutylate = 1 [1] | inhibition % of the gastric juice, relative to scopolamine bromobutylate = 1 [2] | Activity compared with the reference compound, taking into account the relevant toxicities [3] | % of animals protected from ulcer, relative to scopolamine bromobutylate = 1 (Shay ulcer in rats)
1 | C[N+]1(CC2CC2)[C@@H]2C[C@H](OC(=O)[C@H](CO)c3ccccc3)C[C@H]1[C@@H]1O[C@@H]12 (stereo partly drawn) [DA-3177, scopolamine-N-(cyclopropyl-methyl)-bromide] | 0.9 | 1 | higher activities than the reference compound | 1.5
2 | CC1CC1C[N+]1(C)[C@@H]2C[C@H](OC(=O)[C@H](CO)c3ccccc3)C[C@H]1[C@@H]1O[C@@H]12 (stereo partly drawn) [DA-3235, Scopolamine-N-(2-methyl-cyclopropyl-methyl)-bromide] | 0.8 | 0.8 | higher activities than the reference compound | 2
3 | C[N+]1(CCC2CC2)[C@@H]2C[C@H](OC(=O)[C@H](CO)c3ccccc3)C[C@H]1[C@@H]1O[C@@H]12 (stereo partly drawn) [DA-3236, scopolamine-N-(cyclopropyl-ethyl)-bromide] | 0.9 | 1.1 |  | 2
4 | C[N+]1(CC2CCC2)[C@@H]2C[C@H](OC(=O)[C@H](CO)c3ccccc3)C[C@H]1[C@@H]1O[C@@H]12 (stereo partly drawn) [DA-3237, Scopolamine-N-(cyclobutyl-methyl)-bromide] | 1.2 | 1.2 | higher activities than the reference compound | 2
5 | C[N+]1(CC2CO2)[C@@H]2C[C@H](OC(=O)[C@H](CO)c3ccccc3)C[C@H]1[C@@H]1O[C@@H]12 (stereo partly drawn) [DA-3245, scopolamine-N-(2,3-epoxypropyl)-bromide] | 0.4 | 1.4 |  | 1.5
6 | CCCC[N+]1(C)[C@@H]2C[C@@H](OC(=O)[C@H](CO)c3ccccc3)C[C@H]1[C@@H]1O[C@@H]12 (stereo partly drawn) [Scopolamine bromobutylate, scopolamine bromobutylate, reference compound] | 1 | 1 |  | 1
